Measurements taken from patent publication US5627270A, “Glycosylated steroid derivatives for transport across biological membranes and process for making and using same” (Trustees of Princeton University, priority 1994, dated 1997).
“Also recorded” adds a separate entry of the source. Like-named read-outs stand apart in the source and are kept apart here.

Experiments:
[1] = system: DH2 cells (a mutant strain of E. coli K-12); type: cell-based; details: for EFFECT (enhancement of erythromycin): compound 20 mM; as to EFFECT (enhancement of erythromycin): key: --: erythromycin alone at 1.0 mM (baseline) and all lesser effects; +: enhancement relative to baseline; +++: significant enhancement relative to baseline
Crithidia fasciculate = assay: ASSAY IV: efficacy of antifungal agents on protozoa with and without added glycosylated steroid derivatives; type: cell-based
[2] = ASSAY I: leakage of carboxyfluorescein from vesicles; type: biochemical; details: for efficacy in permeabilizing phospholipid membranes: concentrations required for >50% leakage taken as measure
[3] = ASSAY II: proton transport across lipid membranes; type: biochemical
[4] = Plasma vancomycin after ileal co-administration in the rat
[5] = Plasma gentamicin after ileal co-administration in the rat; details: absence of 1
[6] = 0.000579 mM final concentration

Compound | % increase in Fluorescence ([2]; 0.117 mM final concentration) | efficacy in permeabilizing phospholipid membranes [2] | % Decrease in Fluorescence ([3]; 0.0116 mM final concentration) | % Decrease in Fluorescence ([3]; 0.00579 mM final concentration) | other results
C[C@H](CCC(=O)O)[C@H]1CC[C@H]2[C@@H]3[C@H](O[C@H]4O[C@H](CO)[C@@H](O)[C@H](O)[C@H]4O)C[C@@H]4C[C@H](O)CC[C@]4(C)[C@H]3C[C@H](O[C@H]3O[C@H](CO)[C@@H](O)[C@H](O)[C@H]3O)[C@]12C [3α-OH-cis-5,10-bis-α,α-glucosyl cholic acid K^+] | – | – | – | – | EFFECT (enhancement of erythromycin) ([1]; erythromycin 0.5 mM): +; EFFECT (enhancement of erythromycin) ([1]; erythromycin 1.0 mM): +
COC(=O)CC[C@@H](C)[C@H]1CC[C@H]2[C@@H]3[C@H](O)C[C@@H]4C[C@H](OC(=O)c5ccc(OC)cc5)CC[C@]4(C)[C@H]3C[C@H](O)[C@]12C [CDE, 3α-O-p-methoxybenzoyl-cis-5,10-cholic acid methyl ester, reference compound] | – | – | – | – | enhancing effect on erythromycin ([1]; lower concentrations (Table V)): does not function as an enhancer; enhancement of antifungal efficacy (Crithidia fasciculate; with 24-TC (thiacholestanol)): lack of an enhancing effect; also recorded: not observed to act as an enhancer
C[C@H](CCC(=O)O)[C@H]1CC[C@H]2[C@@H]3[C@H](O)C[C@@H]4C[C@H](O)CC[C@]4(C)[C@H]3CC[C@]12C [Chenodeoxycholic Acid, reference compound] | 17.7% | also permeabilize membranes in this assay, although at much higher concentrations | 8.2% | – | % increase in Fluorescence ([2]; 1.17 mM final concentration): 80.9%; enhancing effect on erythromycin ([1]; test compound 20 mM): did not have a detectable effect
C[C@H](CCC(=O)O)[C@H]1CC[C@H]2[C@@H]3[C@H](O)C[C@@H]4C[C@H](O)CC[C@]4(C)[C@H]3C[C@H](O)[C@]12C [Cholic Acid, reference compound] | 0% | also permeabilize membranes in this assay, although at much higher concentrations | – | – | % increase in Fluorescence ([2]; 2.341 mM final concentration): 59.1%; enhancing effect on erythromycin ([1]; test compound 20 mM): did not have a detectable effect; % Decrease in Fluorescence [3]: 1.0%
C[C@H](CCC(=O)O)[C@H]1CC[C@H]2[C@@H]3CC[C@@H]4C[C@H](O)CC[C@]4(C)[C@H]3C[C@H](O)[C@]12C [Deoxycholic Acid, reference compound] | – | also permeabilize membranes in this assay, although at much higher concentrations | – | – | EFFECT (enhancement of erythromycin) ([1]; erythromycin 0.5 mM): +; EFFECT (enhancement of erythromycin) ([1]; erythromycin 1.0 mM): +; enhancing effect on erythromycin ([1]; test compound 20 mM): showed any effect
CCOC(=O)O[C@@H]1CC[C@@]2(C)[C@@H](C1)C[C@@H](O[C@H]1O[C@H](CO)[C@@H](O)[C@H](O)[C@H]1O)[C@@H]1[C@@H]2C[C@H](O[C@H]2O[C@H](CO)[C@@H](O)[C@H](O)[C@H]2O)[C@]2(C)[C@@H]([C@H](C)CCC(=O)OC)CC[C@@H]12 [Entry 1, 3α-ethylcarbonate-cis-5,10-bis-α,α-7,12-glucosyl cholic acid methyl ester] | 0% | – | 7.6% | 4.3% | –
C[C@H](CCC(=O)O)[C@H]1CC[C@H]2[C@@H]3[C@H](O[C@H]4O[C@H](CO)[C@@H](O)[C@H](O)[C@H]4O)C[C@@H]4C[C@H](O)CC[C@]4(C)[C@H]3C[C@H](O[C@H]3O[C@H](CO)[C@@H](O)[C@H](O)[C@H]3O)[C@]12C [Entry 3, 3α-hydroxy-cis-5,10-bis-α,α-7,12-glucosyl cholic acid] | – | – | 35.4% | 21.0% | % increase in Fluorescence ([2]; 2.34 mM final concentration): 0%
COC(=O)CC[C@@H](C)[C@H]1CC[C@H]2[C@@H]3[C@H](O[C@H]4O[C@H](CO)[C@@H](O)[C@H](O)[C@H]4O)C[C@@H]4C[C@H](O)CC[C@]4(C)[C@H]3C[C@H](O[C@H]3O[C@H](CO)[C@@H](O)[C@H](O)[C@H]3O)[C@]12C [Entry 4, 3α-hydroxy-cis-5,10-bis-α,α-7,12-glucosyl cholic acid methyl ester] | 0% | – | 12.3% | 7.89% | –
C[C@H](CCC(=O)NC(Cc1c[nH]c2ccccc12)C(=O)O)[C@H]1CC[C@H]2[C@@H]3[C@H](O[C@H]4O[C@H](CO)[C@@H](O)[C@H](O)[C@H]4O)C[C@@H]4C[C@H](O)CC[C@]4(C)[C@H]3C[C@H](O[C@H]3O[C@H](CO)[C@@H](O)[C@H](O)[C@H]3O)[C@]12C (stereo partly drawn) [Entry 5, 3α-hydroxy-cis-5,10-bis-α,α-7,12-glucosyl-25-tryptophanyl cholic acid] | 57.3% | – | 26.1% | 19.4% | –
COC(=O)CC[C@@H](C)[C@H]1CC[C@H]2[C@@H]3[C@H](O[C@H]4O[C@H](CO)[C@@H](O)[C@H](O)[C@H]4O)C[C@@H]4C[C@H](OC(=O)c5ccccc5)CC[C@]4(C)[C@H]3C[C@H](O[C@H]3O[C@H](CO)[C@@H](O)[C@H](O)[C@H]3O)[C@]12C [Entry 7, 3α-O-benzoyl-cis-5,10-bis-α,α-7,12-glucosyl cholic acid methyl ester] | 89.1% | the most effective glycosylated steroids tested | 19.8% | 15.2% | –
COC(=O)CC[C@@H](C)[C@H]1CC[C@H]2[C@@H]3[C@H](O[C@H]4O[C@H](CO)[C@@H](O)[C@H](O)[C@H]4O)C[C@@H]4C[C@H](OC(=O)c5ccc(OC)cc5)CC[C@]4(C)[C@H]3C[C@H](O[C@H]3O[C@H](CO)[C@@H](O)[C@H](O)[C@H]3O)[C@]12C [Entry 8, 3α-O-p-methoxybenzoyl-cis-5,10-bis-α,α-7,12-glucosyl cholic acid methyl ester] | 89.1% | the most effective glycosylated steroids tested | 32.2% | 20.6% | efficacy in permeabilizing phospholipid membranes ([2]; listed as CME): a good membrane permeabilizing agent; EFFECT (clearing) ([1]; compound 0.001 mM, erythromycin 0.01 mM): +; EFFECT (clearing) ([1]; compound 0.01 mM, erythromycin 0.01 mM): +; EFFECT (clearing) ([1]; compound 0.1 mM, erythromycin 0.01 mM): +; EFFECT (clearing) ([1]; compound 0.1 mM, erythromycin 0.1 mM): +; EFFECT (enhancement of erythromycin) ([1]; erythromycin 0.5 mM): +++; EFFECT (enhancement of erythromycin) ([1]; erythromycin 1.0 mM): +++; enhancing effect on erythromycin ([1]; lower concentrations (Table V)): acts as an enhancer at very low concentrations; enhancing effect on erythromycin ([1]; test compound 20 mM): the best "enhancer" in this assay; enhancement of antifungal efficacy (Crithidia fasciculate; with 10-TSA (thiastearic acid), listed as CME): enhancing effect; also recorded: enhances the efficacy of 10-TSA dramatically; enhancement of antifungal efficacy (Crithidia fasciculate; with 24-TC (thiacholestanol), listed as CME): enhancing effect; also recorded: enhance the efficacy of 24-TC
COC(=O)CC[C@@H](C)[C@H]1CC[C@H]2[C@@H]3[C@H](O[C@@H]4O[C@H](CO)[C@@H](O)[C@H](O)[C@H]4O)C[C@H]4C[C@H](OC(=O)c5ccccc5)CC[C@]4(C)[C@H]3C[C@H](O[C@@H]3O[C@H](CO)[C@@H](O)[C@H](O)[C@H]3O)[C@]12C [Entry 9, 3α-O-benzoyl-trans-5,10-bis-β,β-7,12-glucosyl cholic acid methyl ester] | 24.5% | – | 43.0% | 27.4% | –
C[C@H](CCC(=O)O)[C@H]1CC[C@H]2[C@@H]3[C@H](O[C@@H]4O[C@H](CO)[C@@H](O)[C@H](O)[C@H]4O)C[C@@H]4C[C@H](O)CC[C@]4(C)[C@H]3C[C@H](O[C@@H]3O[C@H](CO)[C@@H](O)[C@H](O)[C@H]3O)[C@]12C [Entry 10, 3α-hydroxy-cis-5,10-bis-β,β-7,12-glucosyl cholic acid] | 0% | – | – | – | –
COC(=O)CC[C@@H](C)[C@H]1CC[C@H]2[C@@H]3[C@H](O[C@H]4O[C@H](CO)[C@@H](O)[C@H](O)[C@H]4O)C[C@H]4C[C@H](OC(=O)c5ccccc5)CC[C@]4(C)[C@H]3C[C@H](O[C@H]3O[C@H](CO)[C@@H](O)[C@H](O)[C@H]3O)[C@]12C [Entry 11, 3α-O-benzoyl-trans-5,10-bis-α,α-7,12-glucosyl cholic acid methyl ester] | 98% | the most effective glycosylated steroids tested | 22.0% | – | EFFECT (enhancement of erythromycin) ([1]; erythromycin 0.5 mM): +; EFFECT (enhancement of erythromycin) ([1]; erythromycin 1.0 mM): +; % Decrease in Fluorescence ([3]; 0.00585 mM final concentration): 14.7%
C[C@H](CCC(=O)O)[C@H]1CC[C@H]2[C@@H]3[C@H](O[C@@H]4O[C@H](CO)[C@@H](O)[C@H](O)[C@H]4O)C[C@H]4C[C@H](O)CC[C@]4(C)[C@H]3C[C@H](O[C@@H]3O[C@H](CO)[C@@H](O)[C@H](O)[C@H]3O)[C@]12C [Entry 13, 3α-hydroxy-trans-5,10-bis-β,β-7,12-glucosyl cholic acid] | 0% | – | 70.6% | 35.2% | % Decrease in Fluorescence [3, 6]: 2.8%
COC(=O)CC[C@@H](C)[C@H]1CC[C@H]2[C@@H]3[C@H](O)C[C@@H]4C[C@H](O)CC[C@]4(C)[C@H]3C[C@H](O)[C@]12C [Methyl Cholate, reference compound] | 25.4% | – | 5.4% | – | –
CN[C@H](CC(C)C)C(=O)N[C@H]1C(=O)N[C@@H](CC(N)=O)C(=O)N[C@H]2C(=O)N[C@H]3C(=O)N[C@H](C(=O)N[C@H](C(=O)O)c4cc(O)cc(O)c4-c4cc3ccc4O)[C@H](O)c3ccc(c(Cl)c3)Oc3cc2cc(c3O[C@@H]2O[C@H](CO)[C@@H](O)[C@H](O)[C@H]2O[C@H]2C[C@](C)(N)[C@H](O)[C@H](C)O2)Oc2ccc(cc2Cl)[C@H]1O [Vancomycin] | – | – | – | – | clearance from the circulation ([4]; ileum versus IV): cleared more slowly from the circulation when administered via the ileum than via IV; Cmax ([4]; rat, in vivo, 5 mg): 5000 to 10000 ng/mL
Gramicidin [reference compound] | – | – | – | 87.2% | % Decrease in Fluorescence [3, 6]: 81.6%
gentamicin | – | – | – | – | ileal bioavailability of gentamicin [5]: 10.7%; plasma concentrations of gentamicin ([5]; ileal, 5 mg antibiotic): 1000 to 7000 ng/mL
